# Experimental data reported in patent publication US20100292169A1, “METHODS AND COMPOSITIONS FOR REGULATING HDAC6 ACTIVITY” (Duke University, priority 2005, published 2010).
# Square brackets hold non-standard residues; d marks the D form. Peptide text beside a SMILES is read from it. * marks the point of attachment. Aoe = N[C@@H](CCCCCC(=O)[C@@H]1CO1)C(=O)O; Cbz = O=C(OCc1ccccc1)*
# B1: p23 protein (Hsp90 co-chaperone), endogenous, of A549 and 293T cells (other, UniProt Q15185 1-160, looked up)
# chain: MQPASAKWYDRRDYVFIEFCVEDSKDVNVNFEKSKLTFSCLGGSDNFKHLNEIDLFHCIDPNDSKHKRTDRSILCCLRKGESGQSWPRLTKERAKLNWLSVDFNNWKDWEDDSDEDMSNFDRFSEMMNNMGGDEDVDLPEVDGADDDSQDSDDEKMPDLE
# B2: Flag-HDAC6 (FLAG-tagged wild-type HDAC6) (protein)
# chain: MTSTGQDSTTTRQRRSRQNPQSPPQDSSVTSKRNIKKGAVPRSIPNLAEVKKKGKMKKLGQAMEEDLIVGLQGMDLNLEAEALAGTGLVLDEQLNEFHCLWDDSFPEGPERLHAIKEQLIQEGLLDRCVSFQARFAEKEELMLVHSLEYIDLMETTQYMNEGELRVLADTYDSVYLHPNSYSCACLASGSVLRLVDAVLGAEIRNGMAIIRPPGHHAQHSLMDGYCMFNHVAVAARYAQQKHRIRRVLIVDWDVHHGQGTQFTFDQDPSVLYFSIHRYEQGRFWPHLKASNWSTTGFGQGQGYTINVPWNQVGMRDADYIAAFLHVLLPVALEFQPQLVLVAAGFDALQGDPKGEMAATPAGFAQLTHLLMGLAGGKLILSLEGGYNLRALAEGVSASLHTLLGDPCPMLESPGAPCRSAQASVSCALEALEPFWEVLVRSTETVERDNMEEDNVEESEEEGPWEPPVLPILTWPVLQSRTGLVYDQNMMNHCNLWDSHHPEVPQRILRIMCRLEELGLAGRCLTLTPRPATEAELLTCHSAEYVGHLRATEKMKTRELHRESSNFDSIYICPSTFACAQLATGAACRLVEAVLSGEVLNGAAVVRPPGHHAEQDAACGFCFFNSVAVAARHAQTISGHALRILIVDWDVHHGNGTQHMFEDDPSVLYVSLHRYDHGTFFPMGDEGASSQIGRAAGTGFTVNVAWNGPRMGDADYLAAWHRLVLPIAYEFNPELVLVSAGFDAARGDPLGGCQVSPEGYAHLTHLLMGLASGRIILILEGGYNLTSISESMAACTRSLLGDPPPLLTLPRPPLSGALASITETIQVHRRYWRSLRVMKVEDREGPSSSKLVTKKAPQPAKPRLAERMTTREKKVLEAGMGKVTSASFGEESTPGQTNSETAVVALTQDQPSEAATGGATLAQTISEAAIGGAMLGQTTSEEAVGGATPDQTTSEETVGGAILDQTTSEDAVGGATLGQTTSEEAVGGATLAQTTSEAAMEGATLDQTTSEEAPGGTELIQTPLASSTDHQTPPTSPVQGTTPQISPSTLIGSLRTLELGSESQGASESQAPGEENLLGEAAGGQDMADSMLMQGSRGLTDQAIFYAVTPLPWCPHLVAVCPIPAAGLDVTQPCGDCGTIQENWVCLSCYQVYCGRYINGHMLQHHGNSGHPLVLSYIDLSAWCYYCQAYVHHQALLDVKNIAHQNKFGEDMPHPH
# B3: Flag-HDAC6-cat-mut (H216/611A, catalytically inactive mutant) (protein)
# chain: MTSTGQDSTTTRQRRSRQNPQSPPQDSSVTSKRNIKKGAVPRSIPNLAEVKKKGKMKKLGQAMEEDLIVGLQGMDLNLEAEALAGTGLVLDEQLNEFHCLWDDSFPEGPERLHAIKEQLIQEGLLDRCVSFQARFAEKEELMLVHSLEYIDLMETTQYMNEGELRVLADTYDSVYLHPNSYSCACLASGSVLRLVDAVLGAEIRNGMAIIRPPGHAAQHSLMDGYCMFNHVAVAARYAQQKHRIRRVLIVDWDVHHGQGTQFTFDQDPSVLYFSIHRYEQGRFWPHLKASNWSTTGFGQGQGYTINVPWNQVGMRDADYIAAFLHVLLPVALEFQPQLVLVAAGFDALQGDPKGEMAATPAGFAQLTHLLMGLAGGKLILSLEGGYNLRALAEGVSASLHTLLGDPCPMLESPGAPCRSAQASVSCALEALEPFWEVLVRSTETVERDNMEEDNVEESEEEGPWEPPVLPILTWPVLQSRTGLVYDQNMMNHCNLWDSHHPEVPQRILRIMCRLEELGLAGRCLTLTPRPATEAELLTCHSAEYVGHLRATEKMKTRELHRESSNFDSIYICPSTFACAQLATGAACRLVEAVLSGEVLNGAAVVRPPGHAAEQDAACGFCFFNSVAVAARHAQTISGHALRILIVDWDVHHGNGTQHMFEDDPSVLYVSLHRYDHGTFFPMGDEGASSQIGRAAGTGFTVNVAWNGPRMGDADYLAAWHRLVLPIAYEFNPELVLVSAGFDAARGDPLGGCQVSPEGYAHLTHLLMGLASGRIILILEGGYNLTSISESMAACTRSLLGDPPPLLTLPRPPLSGALASITETIQVHRRYWRSLRVMKVEDREGPSSSKLVTKKAPQPAKPRLAERMTTREKKVLEAGMGKVTSASFGEESTPGQTNSETAVVALTQDQPSEAATGGATLAQTISEAAIGGAMLGQTTSEEAVGGATPDQTTSEETVGGAILDQTTSEDAVGGATLGQTTSEEAVGGATLAQTTSEAAMEGATLDQTTSEEAPGGTELIQTPLASSTDHQTPPTSPVQGTTPQISPSTLIGSLRTLELGSESQGASESQAPGEENLLGEAAGGQDMADSMLMQGSRGLTDQAIFYAVTPLPWCPHLVAVCPIPAAGLDVTQPCGDCGTIQENWVCLSCYQVYCGRYINGHMLQHHGNSGHPLVLSYIDLSAWCYYCQAYVHHQALLDVKNIAHQNKFGEDMPHPH
# Experiments:
# [1] = test system: p60^HOP and p50^cdc37; assay: Rescue of p60HOP and p50cdc37 levels by proteasome inhibition after loss of HDAC6; type: cell-based
# Excerpt: Since p60^HOP and p50^cdc37 are critical co-chaperones for Hsp90 function, these observations provide further evidence that HDAC6 is required for full Hsp90 chaperone function.
# [2] = test system: HDAC members; settings: cited from earlier work
# [3] = test system: Hsp90-p23 interactions; assay: Hsp90-p23 co-immunoprecipitation in A549 cells; type: cell-based; settings: treated for 4 hours or HDAC6 siRNA knockdown
# Description: (§1) Immunoprecipitation and immunostaining. Cells were lysed as described previously (Hubbert et al., 2002). Hsp90 antibody was pre-incubated with rabbit-anti-mouse (Jackson Labs) and Protein-A Sepharose beads (Roche) for 10 minutes. The bead/antibody mix was added to 750 μg of whole cell lysate and incubated at 4° C. for 3 hours. Samples were washed 4 times with 150 mM NETN(Hubbert et al., 2002) and subjected to SDS-PAGE and immunoblotting analysis. Immunolocalization of GR and HDAC6 was described previously (Hubbert et al., 2002).
# (§2) Studies were also conducted to identify the molecular basis for the regulation of Hsp90 function via HDAC6-mediated deacetylation. Because the proper folding of GR by Hsp90 depends on the association of Hsp90 with a distinct set of co-chaperones into a chaperone complex (Neckers, 2002; Pratt and Toft, 2003), a determination was made regarding whether Hsp90 acetylation affects Hsp90/co-chaperone assembly. The p23 protein (Johnson and Toft, 1994) is a co-chaperone that stabilizes the Hsp90-GR complex and is critical for GR ligand binding activity in vitro and in vivo (Dittmar et al., 1997; Morishima et al., 2003). Control A549 cells and HDAC6 siRNA knockdown cells (KD) were left untreated or treated for 4 hours with TSA or TPXb. Lysates were immunoprecipitated with α-Hsp90 antibody followed by immunoblotting with α-p23 antibody. […]
# [4] = test system: Hsp90; assay: Hsp90 acetylation: α-Hsp90 immunoprecipitation, α-AcK immunoblot, in A549 cells; type: cell-based
# Description: as §1
# HDAC6 regulates Hsp90 acetylation. To investigate the possibility that HDAC6 functions as an Hsp90 deacetylase, a determination was made regarding whether over-expression of HDAC6 can lead to Hsp90 deacetylation in vivo. […] A basal level of Hsp90 acetylation could be detected in control A549 cell lines. […] The reactions were then subjected to SDS-PAGE and immunoblotted with the indicated antibodies).
# Hsp90 hyperacetylation is induced by dexamethasone and correlated with the dissociation of functional […]. Experiments were conducted to determine whether Hsp90 acetylation is regulated by dexamethasone. Control and HDAC6 knockdown A549 cells were cultured in hormone free media for 24 hours, and then stimulated with dexamethasone for the indicated time in hours. […]
# [5] = test system: Hsp90-GR complex; assay: Hsp90-GR co-immunoprecipitation in A549 cells; type: cell-based; settings: TSA 4 hours or HDAC6 knockdown
# Description: as §1, §2
# [6] = target: glucocorticoid receptor (GR), endogenous, of A549 and 293T cells (human) (UniProt P04150); assay: cell-based or functional assay
# [7] = target: T1, mouse glucocorticoid receptor (mGR), full length (mouse, UniProt P06537 1-792); assay: immunoadsorption of mGR from wild-type and HDAC6 knockdown 293T cells, immunoblot for coadsorbed p23 (within the GR.hsp90 complex)
# T1 construct: stripped of chaperones with 0.5 M NaCl before reconstitution; also called mouse GR
# T1 sequence (looked up): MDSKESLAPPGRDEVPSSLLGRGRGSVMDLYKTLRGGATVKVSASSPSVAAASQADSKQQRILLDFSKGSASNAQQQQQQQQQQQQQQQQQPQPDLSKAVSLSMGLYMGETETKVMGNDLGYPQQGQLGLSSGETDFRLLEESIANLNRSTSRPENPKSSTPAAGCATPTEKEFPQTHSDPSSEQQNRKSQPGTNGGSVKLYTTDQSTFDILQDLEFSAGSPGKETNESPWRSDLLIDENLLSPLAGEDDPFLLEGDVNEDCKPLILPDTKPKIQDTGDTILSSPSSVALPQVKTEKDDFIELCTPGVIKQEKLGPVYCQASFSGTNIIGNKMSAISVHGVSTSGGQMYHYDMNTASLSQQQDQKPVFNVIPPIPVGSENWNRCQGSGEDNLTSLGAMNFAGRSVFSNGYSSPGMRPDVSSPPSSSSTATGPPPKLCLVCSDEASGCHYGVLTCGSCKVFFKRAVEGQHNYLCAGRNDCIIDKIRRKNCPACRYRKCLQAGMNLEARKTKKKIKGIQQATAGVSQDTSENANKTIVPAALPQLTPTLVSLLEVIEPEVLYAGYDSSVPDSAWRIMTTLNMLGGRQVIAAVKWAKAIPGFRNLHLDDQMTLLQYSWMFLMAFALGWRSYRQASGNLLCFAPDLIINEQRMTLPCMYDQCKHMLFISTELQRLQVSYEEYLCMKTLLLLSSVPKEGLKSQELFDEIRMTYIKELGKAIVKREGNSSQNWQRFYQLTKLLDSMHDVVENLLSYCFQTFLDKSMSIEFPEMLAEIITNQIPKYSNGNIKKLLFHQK
# Excerpt: Because an immunoadsorbing antibody against the human GR was not available, the mouse GR was transiently expressed in HEK cells.
# [8] = target: acetylated (hyperacetylated) Hsp90 from HDAC6 knockdown or TSA-treated cells
molecule,measurement,setting,value
CC(C)C[C@@H](C=O)NC(=O)[C@H](CC(C)C)NC(=O)[C@H](CC(C)C)NC(=O)OCc1ccccc1 [MG132] (Cbz-Leu-Leu-Leu-aldehyde),rescue of the reduction of p60^HOP and p50^cdc37,[1],partially rescued
O=C1N[C@@H](Cc2ccccc2)C(=O)N2CCC[C@@H]2C(=O)N[C@@H](CCCCCC(=O)[C@@H]2CO2)C(=O)N[C@H]1Cc1ccccc1 [TPXb] (cyclo(FF[dP][Aoe])),HDAC inhibition profile,[2],a potent inhibitor for all HDAC members except HDAC6
same,Hsp90-p23 interactions,[3],had little effect
CC(/C=C/C(=O)NO)=C\[C@@H](C)C(=O)c1ccc(N(C)C)cc1 [trichostatin A],Hsp90-p23 interactions,[3],disrupted Hsp90-p23 interactions
same,level of acetylated Hsp90,"[4]; A549 cells, treated for 4 hours (TPXb 100 nM) or stably expressing siRNA",dramatic rise in the level of acetylated Hsp90
same,Hsp90 acetylation in HDAC6 knockdown cells,"[4]; HDAC6 knockdown A549 cells, TSA treatment",little effect on Hsp90 acetylation
same,Hsp90 and GR interaction,[5],significantly reduced
acetylated (hyperacetylated) Hsp90 from HDAC6 knockdown or TSA-treated cells,GR ligand binding activity ([^3H]dexamethasone bound in 293T cytosol) (fold reduction),[6],6
B1,binding result,[7],binds
B2,"in vitro deacetylation of acetylated Hsp90 (37° C., 60 minutes; α-AcK immunoblot)",[8],immuno-purified wild type but not catalytically inactive mutant HDAC6 can efficiently deacetylate acetylated Hsp90 in vitro
same,restoration of stable GR.hsp90 heterocomplex assembly activity after incubation with immunopurified FLAG-HDAC6,[8],The stable heterocomplex assembly activity of purified knockdown cell hsp90 is restored to the level of purified wild-type hsp90 by incubation with immunopurified FLAG-HDAC6
B3,"in vitro deacetylation of acetylated Hsp90 (37° C., 60 minutes; α-AcK immunoblot)",[8],immuno-purified wild type but not catalytically inactive mutant HDAC6 can efficiently deacetylate acetylated Hsp90 in vitro
